Experimental findings from patent US20230077362A1 (CORTEVA AGRISCIENCE LLC, priority 2019, published 2023) are described below.

Holding throughout (type): in vivo
Test [1] concerns Beet Armyworm (Spodoptera exigua) ("BAW"), second instar larvae. The test is described as follows: Bioassay on beet armyworm (BAW), 128-well diet tray assay. As to conditions: Spodoptera exigua, read-out: BAW (Biological Results, rating). The essentials:
(§1)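 Read-out: percent larval mortality per well, averaged over 8 wells. Incubation 25° C., 14:10 L:D photoperiod, 5–7 days, trays sealed with clear adhesive cover.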

Test [2] relates to Cabbage Looper (Trichoplusia ni) ("CL"), second instar larvae. The test can be described thus: Bioassay on cabbage looper (CL), 128-well diet tray assay. The settings on record: Trichoplusia ni, read-out: CL (Biological Results, rating). The method in brief: as §1
Test [3] deals with Green Peach Aphid ("GPA") (Myzus persicae), wingless adult and nymph stages. The test is described as follows: Bioassay on green peach aphid (GPA), foliar spray on infested cabbage seedlings. As to conditions: Myzus persicae, foliar, 72 h, read-out: GPA (Biological Results, rating). The method, then: Certain molecules disclosed in this document were tested against GPA using procedures described in the following example. In the reporting of the results, the “GPA Rating Table” was used (See Table Section).
Cabbage seedlings grown in 3-inch pots, with 2-3 small (3-5 cm) true leaves, were used as test substrate. The seedlings were infested with 20-50 GPA (wingless adult and nymph stages) one day prior to chemical application. Four pots with individual seedlings were used for each treatment. Test compounds (2 mg) were dissolved in 2 mL of acetone/methanol (1:1) solvent, forming stock solutions of 1000 ppm test compound. […] A hand-held aspirator-type sprayer was used for spraying a solution to both sides of […] leaves until runoff. Reference plants (solvent check) were sprayed with the diluent only containing 20% by volume of acetone/methanol (1:1) solvent. Treated plants were held in a holding room for three days at approximately 25° C. and ambient relative humidity (RH) prior to grading. Evaluation was conducted by counting the number of live aphids per plant under a microscope.
Corrected % Control=100*(X−Y)/X • where • X=No. of live aphids on solvent check plants and • Y=No. of live aphids on treated plants
The results are indicated in the table entitled “Table ABC: Biological Results” (See Table Section).

For `Cc1ccc(OCCC(F)(F)F)c(N2C(=O)CS/C2=N\C(=O)Nc2ccc(-c3ncn(-c4cccc(C(F)(F)F)c4)n3)cc2C)c1` [Compound J134, (Z)-1-(3-(5-Methyl-2-(3,3,3-trifluoropropoxy)phenyl)-4-oxothiazolidin-2-ylidene)-3-(2-methyl-4-(1-(3-(trifluoromethyl)phenyl)-1H-1,2,4-triazol-3-yl)phenyl)urea], the pest or weed control at 50 µg/cm2 in test [1] and in test [2] was 50 to 100% each time. In addition, the pest or weed control at 200 µg/mL in test [3] lay within 0 to 80%.

Consider `Cc1ccc(C(C)C)c(N2C(=O)CS/C2=N\C(=O)Nc2ccc(-c3ncn(-c4cccc(OC(F)(F)F)c4)n3)cc2C)c1` [Compound J135, (Z)-1-(3-(2-Isopropyl-5-methylphenyl)-4-oxothiazolidin-2-ylidene)-3-(2-methyl-4-(1-(3-(trifluoromethoxy)phenyl)-1H-1,2,4-triazol-3-yl)phenyl)urea], for which the pest or weed control at 50 µg/cm2 in test [1] and in test [2] was 50 to 100% in each case. The pest or weed control at 200 µg/mL in test [3] was in the range of 0 to 80%.

As to `COc1ccc(C(C)C)c(N2C(=O)CS/C2=N\C(=O)Nc2ccc(-c3ncn(-c4cccc(OC(F)(F)F)c4)n3)cc2C)c1` [Compound J136, (Z)-1-(3-(2-Isopropyl-5-methoxyphenyl)-4-oxothiazolidin-2-ylidene)-3-(2-methyl-4-(1-(3-(trifluoromethoxy)phenyl)-1H-1,2,4-triazol-3-yl)phenyl)urea], the pest or weed control at 50 µg/cm2 in test [1] and in test [2] was 50 to 100% in each case. Moreover, the pest or weed control at 200 µg/mL in test [3] was in the range of 0 to 80%.

In the case of `Cc1cc(-c2ncn(-c3cccc(OC(F)(F)F)c3)n2)ccc1NC(=O)/N=C1\SCC(=O)N1c1cc(N(C)C)ccc1C(C)C` [Compound J137, (Z)-1-(3-(5-(Dimethylamino)-2-isopropylphenyl)-4-oxothiazolidin-2-ylidene)-3-(2-methyl-4-(1-(3-(trifluoromethoxy)phenyl)-1H-1,2,4-triazol-3-yl)phenyl)urea], the pest or weed control at 50 µg/cm2 in test [1] and in test [2] was 50 to 100% in each case. In test [3], the pest or weed control at 200 µg/mL fell in the range of 0 to 80%.

On to `Cc1ccc(OCCC(F)(F)F)c(N2C(=O)CS/C2=N\C(=O)Nc2ccc(-c3ncn(-c4cccc(OC(F)(F)F)c4)n3)cc2C)c1` [Compound J138, (Z)-1-(3-(5-Methyl-2-(3,3,3-trifluoropropoxy)phenyl)-4-oxothiazolidin-2-ylidene)-3-(2-methyl-4-(1-(3-(trifluoromethoxy)phenyl)-1H-1,2,4-triazol-3-yl)phenyl)urea], for which the pest or weed control at 50 µg/cm2 in test [1] and in test [2] was 50 to 100% throughout. Also, the pest or weed control at 200 µg/mL in test [3] was in the range of 0 to 80%.

Turning to `Cc1ccc(COCC(F)(F)F)c(N2C(=O)CS/C2=N\C(=O)Nc2ccc(-c3ncn(-c4ccc(OC(F)(F)F)cc4)n3)cc2C)c1` [Compound J139, (Z)-1-(3-(5-Methyl-2-((2,2,2-trifluoroethoxy)methyl)phenyl)-4-oxothiazolidin-2-ylidene)-3-(2-methyl-4-(1-(4-(trifluoromethoxy)phenyl)-1H-1,2,4-triazol-3-yl)phenyl)urea], the pest or weed control at 50 µg/cm2 in test [1] and in test [2] was 50 to 100% each time. Also, the pest or weed control at 200 µg/mL in test [3] lay within 0 to 80%.

With `CCOC(C)c1ccc(C)cc1N1C(=O)CS/C1=N\C(=O)Nc1ccc(-c2ncn(-c3ccc(OC(F)(F)F)cc3)n2)cc1C` (stereo not drawn) [Compound J141, (Z)-1-(3-(2-(1-Ethoxyethyl)-5-methylphenyl)-4-oxothiazolidin-2-ylidene)-3-(2-methyl-4-(1-(4-(trifluoromethoxy)phenyl)-1H-1,2,4-triazol-3-yl)phenyl)urea], the pest or weed control at 50 µg/cm2 in test [1] and in test [2] was 50 to 100% each time. Also, the pest or weed control at 200 µg/mL in test [3] fell in the range of 0 to 80%.

`Cc1ccc(OCCC(F)(F)F)c(N2C(=O)CS/C2=N\C(=O)Nc2ccc(-c3ncn(-c4cccc(C(F)(F)F)c4)n3)cc2F)c1` [Compound J142, (Z)-1-(2-Fluoro-4-(1-(3-(trifluoromethyl)phenyl)-1H-1,2,4-triazol-3-yl)phenyl)-3-(3-(5-methyl-2-(3,3,3-trifluoropropoxy)phenyl)-4-oxothiazolidin-2-ylidene)urea]: the pest or weed control at 50 µg/cm2 in test [1] and in test [2] was 50 to 100% in each case. Further, the pest or weed control at 200 µg/mL in test [3] is 0 to 80%.

With `Cc1ccc(C(C)C)c(N2C(=O)CS/C2=N\C(=O)Nc2ccc(-c3ncn(-c4cccc(OC(F)(F)F)c4)n3)cc2F)c1` [Compound J143, (Z)-1-(2-Fluoro-4-(1-(3-(trifluoromethoxy)phenyl)-1H-1,2,4-triazol-3-yl)phenyl)-3-(3-(2-isopropyl-5-methylphenyl)-4-oxothiazolidin-2-ylidene)urea], the pest or weed control at 50 µg/cm2 in test [1] and in test [2] was 50 to 100% throughout. The pest or weed control at 200 µg/mL in test [3] lay within 0 to 80%.

Turning to `COc1ccc(-n2cnc(-c3ccc(NC(=O)/N=C4\SCC(=O)N4c4cc(OC)ccc4C(C)C)c(F)c3)n2)cc1` [Compound J145, (Z)-1-(2-Fluoro-4-(1-(4-methoxyphenyl)-1H-1,2,4-triazol-3-yl)phenyl)-3-(3-(2-isopropyl-5-methoxyphenyl)-4-oxothiazolidin-2-ylidene)urea], the pest or weed control at 50 µg/cm2 in test [1] and in test [2] was 50 to 100% throughout. Also, the pest or weed control at 200 µg/mL in test [3] was 0 to 80%.

On to `COc1ccc(-n2cnc(-c3ccc(NC(=O)/N=C4\SCC(=O)N4c4cc(N(C)C)ccc4C(C)C)c(F)c3)n2)cc1` [Compound J146, (Z)-1-(3-(5-(Dimethylamino)-2-isopropylphenyl)-4-oxothiazolidin-2-ylidene)-3-(2-fluoro-4-(1-(4-methoxyphenyl)-1H-1,2,4-triazol-3-yl)phenyl)urea], for which the pest or weed control at 50 µg/cm2 in test [1] and in test [2] was 50 to 100% each time. In addition, the pest or weed control at 200 µg/mL in test [3] was 0 to 80%.

As for `Cc1ccc(-n2cnc(-c3ccc(NC(=O)/N=C4\SCC(=O)N4c4cc(C)ccc4C(C)C)c(F)c3)n2)cc1` [Compound J148, (Z)-1-(2-Fluoro-4-(1-(p-tolyl)-1H-1,2,4-triazol-3-yl)phenyl)-3-(3-(2-isopropyl-5-methylphenyl)-4-oxothiazolidin-2-ylidene)urea], the pest or weed control at 50 µg/cm2 in test [1] and in test [2] was 50 to 100% throughout. In addition, in test [3], the pest or weed control at 200 µg/mL lay within 0 to 80%.

Take `COc1ccc(C(C)C)c(N2C(=O)CS/C2=N\C(=O)Nc2ccc(-c3ncn(-c4ccc(C)cc4)n3)cc2F)c1` [Compound J149, (Z)-1-(2-Fluoro-4-(1-(p-tolyl)-1H-1,2,4-triazol-3-yl)phenyl)-3-(3-(2-isopropyl-5-methoxyphenyl)-4-oxothiazolidin-2-ylidene)urea]: the pest or weed control at 50 µg/cm2 in test [1] and in test [2] was 50 to 100% in each case. In addition, the pest or weed control at 200 µg/mL in test [3] was 0 to 80%.

On to `Cc1ccc(-n2cnc(-c3ccc(NC(=O)/N=C4\SCC(=O)N4c4cc(C)ccc4OCCC(F)(F)F)c(F)c3)n2)cc1` [Compound J151, (Z)-1-(2-Fluoro-4-(1-(p-tolyl)-1H-1,2,4-triazol-3-yl)phenyl)-3-(3-(5-methyl-2-(3,3,3-trifluoropropoxy)phenyl)-4-oxothiazolidin-2-ylidene)urea], for which the pest or weed control at 50 µg/cm2 in test [1] and in test [2] was 50 to 100% in each case. The pest or weed control at 200 µg/mL in test [3] fell in the range of 0 to 80%.

`COc1ccc(C(C)C)c(N2C(=O)CS/C2=N\C(=O)Nc2ccc(-c3ncn(-c4cccc(C(F)(F)F)c4)n3)cc2F)c1` [Compound J152, (Z)-1-(2-Fluoro-4-(1-(3-(trifluoromethyl)phenyl)-1H-1,2,4-triazol-3-yl)phenyl)-3-(3-(2-isopropyl-5-methoxyphenyl)-4-oxothiazolidin-2-ylidene)urea]: the pest or weed control at 50 µg/cm2 in test [1] and in test [2] was 50 to 100% throughout. Moreover, in test [3], the pest or weed control at 200 µg/mL lay within 0 to 80%.

In the case of `CC(C)c1ccc(N(C)C)cc1N1C(=O)CS/C1=N\C(=O)Nc1ccc(-c2ncn(-c3cccc(C(F)(F)F)c3)n2)cc1F` [Compound J153, (Z)-1-(3-(5-(Dimethylamino)-2-isopropylphenyl)-4-oxothiazolidin-2-ylidene)-3-(2-fluoro-4-(1-(3-(trifluoromethyl)phenyl)-1H-1,2,4-triazol-3-yl)phenyl)urea], the pest or weed control at 50 µg/cm2 in test [1] and in test [2] was 50 to 100% in each case. Besides, the pest or weed control at 200 µg/mL in test [3] was 0 to 80%.

Regarding `COc1ccc(C(C)C)c(N2C(=O)CS/C2=N\C(=O)Nc2ccc(-c3ncn(-c4cccc(OC(F)(F)F)c4)n3)cc2F)c1` [Compound J154, (Z)-1-(2-Fluoro-4-(1-(3-(trifluoromethoxy)phenyl)-1H-1,2,4-triazol-3-yl)phenyl)-3-(3-(2-isopropyl-5-methoxyphenyl)-4-oxothiazolidin-2-ylidene)urea], the pest or weed control at 50 µg/cm2 in test [1] and in test [2] was 50 to 100% in each case. Besides, in test [3], the pest or weed control at 200 µg/mL was in the range of 0 to 80%.
